SMILES strings stand for the structures. ≈ marks a conversion by molar mass, not a printed value.

The test system of one test is S. suis 1054471. Nature of the test: Resistance to antibiotics (MIC-based class). In kind it is cell-based, Streptococcus suis. Particulars: strain 1054471; resistant if MIC ≥ 400 μg/ml. The source says:
(§1) Table 1 Strains of S. suis used in this study, their characteristics and susceptibility to S. suis 65. | column: Resistance to antibiotics ^1 / Erythromycin; Resistance to antibiotics ^1 / Tetracycline

A further test relates to S. suis 1088563. As to the kind of experiment: Resistance to antibiotics (MIC-based class). The format is cell-based, Streptococcus suis. Particulars: strain 1088563; resistant if MIC ≥ 400 μg/ml.
Source text: as §1

The subject of the next test is S. suis 31533. Nature of the test: Resistance to antibiotics (MIC-based class). In kind it is cell-based, Streptococcus suis. The following applies: strain 31533; resistant if MIC ≥ 400 μg/ml.
Source text: as §1

A further test relates to S. suis LPH4. As to the kind of experiment: Resistance to antibiotics (MIC-based class). In kind it is cell-based, Streptococcus suis. Particulars: strain LPH4; resistant if MIC ≥ 400 μg/ml.
Source text: as §1

The subject of another test is S. suis MNCM01. Nature of the test: Resistance to antibiotics (MIC-based class). Particulars: strain MNCM01; resistant if MIC ≥ 400 μg/ml. The format is cell-based, Streptococcus suis.
Source text: as §1

For the next test, the system named is S. suis MNCM06. Nature of the test: Resistance to antibiotics (MIC-based class). Particulars: strain MNCM06; resistant if MIC ≥ 400 μg/ml. The format is cell-based, Streptococcus suis.
Source text: as §1

The next test concerns S. suis P1/7. As to the kind of experiment: Resistance to antibiotics (MIC-based class). Particulars: strain P1/7; resistant if MIC ≥ 400 μg/ml. In kind it is cell-based, Streptococcus suis.
Source text: as §1

The next test deals with S. suis 65. Nature of the test: Antibiotic susceptibility of S. suis 65 (broth microdilution MIC). The format is cell-based. The following applies: Streptococcus suis; S. suis 65, THB, 96-well plates, 24 h at 37°C, growth recorded visually; three independent experiments. The method, then:
The susceptibility of S. suis 65 to antibiotics (amoxicillin, ceftiofur, and penicillin G) was determined as follows. Briefly, a 24-h bacterial culture in THB was diluted in fresh broth medium to obtain an optical density at 660 nm (OD660) of 0.2. Equal volumes (100 μl) of bacteria and serial dilutions of antibiotics in THB were mixed in the wells of 96-well plates. Wells with no bacteria or no antibiotics were used as controls. Following a 24-h incubation at 37°C, bacterial growth was recorded visually. Minimal inhibitory concentration (MIC) values (μg/ml) were expressed as the lowest concentration at which no growth occurred. The MIC values were determined in three independent experiments.

With `CC[C@H]1OC(=O)[C@H](C)[C@@H](O[C@H]2C[C@@](C)(OC)[C@@H](O)[C@H](C)O2)[C@H](C)[C@@H](O[C@@H]2O[C@H](C)C[C@H](N(C)C)[C@H]2O)[C@](C)(O)C[C@@H](C)C(=O)[C@H](C)[C@@H](O)[C@]1(C)O` [Erythromycin], the Resistance to antibiotics result is “Sensitive (A strain was considered resistant if the MIC was ≥ 400 μg/ml)” with S. suis 1054471; “Resistant (A strain was considered resistant if the MIC was ≥ 400 μg/ml)” in the test on S. suis 1088563; “Sensitive (A strain was considered resistant if the MIC was ≥ 400 μg/ml)” in the test with S. suis 31533; “Resistant (A strain was considered resistant if the MIC was ≥ 400 μg/ml)” with S. suis LPH4; “Resistant (A strain was considered resistant if the MIC was ≥ 400 μg/ml)” with S. suis MNCM01; “Resistant (A strain was considered resistant if the MIC was ≥ 400 μg/ml)” with S. suis MNCM06. In addition, in the test on S. suis P1/7, the Resistance to antibiotics result was “Sensitive (A strain was considered resistant if the MIC was ≥ 400 μg/ml)”.
In the case of `CN(C)[C@@H]1C(O)=C(C(N)=O)C(=O)[C@@]2(O)C(O)=C3C(=O)c4c(O)cccc4[C@@](C)(O)[C@H]3C[C@@H]12` [Tetracycline], the Resistance to antibiotics entry is given as “Resistant (A strain was considered resistant if the MIC was ≥ 400 μg/ml)” with S. suis 1054471; “Resistant (A strain was considered resistant if the MIC was ≥ 400 μg/ml)” in the test with S. suis 1088563; “Sensitive (A strain was considered resistant if the MIC was ≥ 400 μg/ml)” with S. suis 31533; “Resistant (A strain was considered resistant if the MIC was ≥ 400 μg/ml)” with S. suis LPH4; “Resistant (A strain was considered resistant if the MIC was ≥ 400 μg/ml)” in the test with S. suis MNCM01; “Resistant (A strain was considered resistant if the MIC was ≥ 400 μg/ml)” with S. suis MNCM06. Besides, the Resistance to antibiotics result in the test on S. suis P1/7 was “Sensitive (A strain was considered resistant if the MIC was ≥ 400 μg/ml)”.
The molecule `CC1(C)S[C@@H]2[C@H](NC(=O)[C@H](N)c3ccc(O)cc3)C(=O)N2[C@H]1C(=O)O` [amoxicillin] came in with an MIC in the test on S. suis 65 of 4.9 ng/mL (≈ 0.0134 µM).
Consider `CO/N=C(\C(=O)N[C@@H]1C(=O)N2C(C(=O)O)=C(CSC(=O)c3ccco3)CS[C@H]12)c1csc(N)n1` [ceftiofur], for which, in the test with S. suis 65, the MIC was determined as 9.8 ng/mL (≈ 0.0187 µM).
`CC1(C)S[C@@H]2[C@H](NC(=O)Cc3ccccc3)C(=O)N2[C@H]1C(=O)O` [penicillin G] yielded a minimum inhibitory concentration (MIC) with S. suis 65 of 9.8 ng/mL (≈ 0.0293 µM).

Source of the values: paper PMC4692507, “Purification and Characterization of Suicin 65, a Novel Class I Type B Lantibiotic Produced by Streptococcus suis” (PLoS ONE, 2015).
